Experimental data taken from ChEMBL document CHEMBL3785036 (J Pharm Sci, 1974).

What was measured:
Type in all cases: ADME, organism-based
[1] = Drug excretion in human subject slow inactivator assessed as sum of isoniazid plus hydrazones, acetylisoniazid, isonicotinic acid and isonicotinuric acid level in urine at 681 mg, iv infused at constant rate 5.4 min measured 339.3 mins after start of drug injection by colorimetry; conditions: in vivo, 5.655 h
[2] = Drug excretion in human subject rapid inactivator assessed as sum of isoniazid plus hydrazones, acetylisoniazid, isonicotinic acid and isonicotinuric acid level in urine at 670 mg, iv infused at constant rate 5.2min measured 335 mins after start of drug injection by colorimetry; conditions: in vivo
[3] = Drug excretion in human slow inactivators urine at 1 g, iv by colorimetry; conditions: in vivo
[4] = Drug excretion in human subject slow inactivator assessed as total isonicotinoyl compound level in urine at 681 mg, iv infused at constant rate 5.4 min measured 466 mins after start of drug injection by colorimetry; conditions: in vivo
[5] = Drug metabolism in human slow inactivators assessed as excretion of 1,2-diacetylhydrazine in urine at 1 g, iv by colorimetry; conditions: in vivo
[6] = Drug excretion in human subject rapid inactivator assessed as sum of isoniazid plus hydrazones, acetylisoniazid, isonicotinic acid and isonicotinuric acid level in urine at 670 mg, iv infused at constant rate 5.2min measured 373 mins after start of drug injection by colorimetry; conditions: in vivo
[7] = Drug excretion in human subject slow inactivator assessed as total isonicotinoyl compound level in urine at 681 mg, iv infused at constant rate 5.4 min measured 554 mins after start of drug injection by colorimetry; conditions: in vivo
[8] = Drug metabolism in human rapid inactivators assessed as excretion of pyruvic acid isonicotinoylhydrazone in urine at 1 g, iv by colorimetry; conditions: in vivo
[9] = Drug excretion in human subject slow inactivator assessed as total isonicotinoyl compound level in urine at 681 mg, iv infused at constant rate 5.4 min measured 648 mins after start of drug injection by colorimetry; conditions: in vivo, 10.8 h
[10] = Drug excretion in human subject slow inactivator assessed as sum of isoniazid plus hydrazones, acetylisoniazid, isonicotinic acid and isonicotinuric acid level in urine at 681 mg, iv infused at constant rate 5.4 min measured 554 mins after start of drug injection by colorimetry; conditions: in vivo
[11] = Drug metabolism in human rapid inactivators assessed as excretion of 1,2-diacetylhydrazine in urine at 1 g, iv by colorimetry; conditions: in vivo
[12] = Drug excretion in human subject slow inactivator assessed as sum of isoniazid plus hydrazones, acetylisoniazid, isonicotinic acid and isonicotinuric acid level in urine at 681 mg, iv infused at constant rate 5.4 min measured 613 mins after start of drug injection by colorimetry; conditions: in vivo
[13] = Drug excretion in human subject slow inactivator assessed as total isonicotinoyl compound level in urine at 681 mg, iv infused at constant rate 5.4 min measured 35.5 mins after start of drug injection by colorimetry; conditions: in vivo
[14] = Drug excretion in human subject slow inactivator assessed as sum of isoniazid plus hydrazones, acetylisoniazid, isonicotinic acid and isonicotinuric acid level in urine at 681 mg, iv infused at constant rate 5.4 min measured 710 mins after start of drug injection by colorimetry; conditions: in vivo
[15] = Drug excretion in human subject slow inactivator assessed as sum of isoniazid plus hydrazones, acetylisoniazid, isonicotinic acid and isonicotinuric acid level in urine at 681 mg, iv infused at constant rate 5.4 min measured 35.5 mins after start of drug injection by colorimetry; conditions: in vivo
[16] = Drug excretion in human subject slow inactivator assessed as sum of isoniazid plus hydrazones, acetylisoniazid, isonicotinic acid and isonicotinuric acid level in urine at 681 mg, iv infused at constant rate 5.4 min measured 496 mins after start of drug injection by colorimetry; conditions: in vivo
[17] = Drug excretion in human subject slow inactivator assessed as sum of isoniazid plus hydrazones, acetylisoniazid, isonicotinic acid and isonicotinuric acid level in urine at 681 mg, iv infused at constant rate 5.4 min measured 586 mins after start of drug injection by colorimetry; conditions: in vivo
[18] = Drug excretion in human subject rapid inactivator assessed as sum of isoniazid plus hydrazones, acetylisoniazid, isonicotinic acid and isonicotinuric acid level in urine at 670 mg, iv infused at constant rate 5.2min measured 195 mins after start of drug injection by colorimetry; conditions: in vivo, 3.25 h
[19] = Drug excretion in human subject slow inactivator assessed as sum of isoniazid plus hydrazones, acetylisoniazid, isonicotinic acid and isonicotinuric acid level in urine at 681 mg, iv infused at constant rate 5.4 min measured 305 mins after start of drug injection by colorimetry; conditions: in vivo
[20] = Drug metabolism in human rapid inactivators assessed as excretion of alpha-ketoglutaric acid isonicotinoylhydrazone in urine at 1 g, iv by colorimetry; conditions: in vivo
[21] = Drug excretion in human rapid inactivators urine assessed as isoniazid plus hydrazones level at 1 g, iv by colorimetry; conditions: in vivo
[22] = Drug excretion in human subject rapid inactivator assessed as total isonicotinoyl compound level in urine at 670 mg, iv infused at constant rate 5.2min measured 94 mins after start of drug injection by colorimetry; conditions: in vivo
[23] = Drug excretion in human subject rapid inactivator assessed as sum of isoniazid plus hydrazones, acetylisoniazid, isonicotinic acid and isonicotinuric acid level in urine at 670 mg, iv infused at constant rate 5.2min measured 32 mins after start of drug injection by colorimetry; conditions: in vivo
[24] = Drug excretion in human subject slow inactivator assessed as sum of isoniazid plus hydrazones, acetylisoniazid, isonicotinic acid and isonicotinuric acid level in urine at 681 mg, iv infused at constant rate 5.4 min measured 370.3 mins after start of drug injection by colorimetry; conditions: in vivo, 6.17167 h
[25] = Drug excretion in human subject rapid inactivator assessed as sum of isoniazid plus hydrazones, acetylisoniazid, isonicotinic acid and isonicotinuric acid level in urine at 670 mg, iv infused at constant rate 5.2min measured 516 mins after start of drug injection by colorimetry; conditions: in vivo
[26] = Drug excretion in human subject slow inactivator assessed as total isonicotinoyl compound level in urine at 681 mg, iv infused at constant rate 5.4 min measured 150 mins after start of drug injection by colorimetry; conditions: in vivo, 2.5 h
[27] = Drug excretion in human subject slow inactivator assessed as sum of isoniazid plus hydrazones, acetylisoniazid, isonicotinic acid and isonicotinuric acid level in urine at 681 mg, iv infused at constant rate 5.4 min measured 677 mins after start of drug injection by colorimetry; conditions: in vivo
[28] = Drug excretion in human subject slow inactivator assessed as total isonicotinoyl compound level in urine at 681 mg, iv infused at constant rate 5.4 min measured 181 mins after start of drug injection by colorimetry; conditions: in vivo
[29] = Drug excretion in human subject rapid inactivator assessed as total isonicotinoyl compound level in urine at 670 mg, iv infused at constant rate 5.2min measured 458 mins after start of drug injection by colorimetry; conditions: in vivo
[30] = Drug excretion in human subject slow inactivator assessed as total isonicotinoyl compound level in urine at 681 mg, iv infused at constant rate 5.4 min measured 396 mins after start of drug injection by colorimetry; conditions: in vivo, 6.6 h
[31] = Drug excretion in human subject rapid inactivator assessed as sum of isoniazid plus hydrazones, acetylisoniazid, isonicotinic acid and isonicotinuric acid level in urine at 670 mg, iv infused at constant rate 5.2min measured 126 mins after start of drug injection by colorimetry; conditions: in vivo, 2.1 h

Drug excretion [1]: 33.69 mg | Drug excretion [2]: 29 mg | Drug excretion [3]: 12.7 %molar | Drug excretion [4]: 20 mg | Drug metabolism [5]: 32.3 %molar | Drug excretion [6]: 28 mg | Drug excretion [7]: 13.1 mg | Drug metabolism [8]: 2.9 %molar | Drug excretion [9]: 11.6 mg | Drug excretion [10]: 13.38 mg | Drug metabolism [11]: 48.4 %molar | Drug excretion [12]: 11.202 mg | Drug excretion [13]: 50.1 mg | Drug excretion [14]: 10.68 mg | Drug excretion [15]: 44.45 mg | Drug excretion [16]: 14.26 mg | Drug excretion [17]: 13.18 mg | Drug excretion [18]: 57.7 mg | Drug excretion [19]: 27.92 mg | Drug metabolism [20]: 1.4 %molar | Drug excretion [21]: 99.6% | Drug excretion [22]: 51.8 mg | Drug excretion [23]: 42.1 mg | Drug excretion [24]: 26.76 mg | Drug excretion [25]: 16.8 mg | Drug excretion [26]: 38.1 mg | Drug excretion [27]: 11.396 mg | Drug excretion [28]: 33.6 mg | Drug excretion [29]: 17.2 mg | Drug excretion [30]: 16.5 mg | Drug excretion [31]: 42.3 mg
SMILES: NNC(=O)c1ccncc1 [ISONIAZID]
